Measured values published in US9113629B2, “4-amino-6-(4-substituted-phenyl)-picolinates and 6-amino-2-(4-substituted-phenyl)-pyrimidine-4-carboxylates and their use as herbicides” (DOW AGROSCIENCES LLC, priority 2013, dated 2015).
Read-outs that look alike come from different tables or passages of the source.

How the values were obtained:
[1] = tested on: Key Grass and Sedge Weeds as well as Grass Crops; experiment: Post-emergent Test II herbicidal activity (Table 6); type: in vivo; details: post-emergence, 336 h; for pest or weed control at 70 g/ha: 70 g ai/ha; for pest or weed control at 140 g/ha: 140 g ai/ha
In short: (§1)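 Plants grown in Metro-Mix 360 (pH 6.0–6.8) in a greenhouse (~15 h photoperiod, 23–29 °C day) to first or second true leaf stage, then sprayed with compound in acetone/DMSO/aqueous crop-oil-surfactant carrier at 187 L/ha by track sprayer. Injury visually scored 0–100% versus untreated plants after 14 d.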

[2] = tested on: Key Broadleaf Weed and Crop Species; experiment: Post-emergent Test II herbicidal activity (Table 5); type: in vivo; details: post-emergence, 336 h, 14 days after application; for pest or weed control at 70 g/ha: application rate 70 g ai/ha; for pest or weed control at 140 g/ha: application rate 140 g ai/ha
In short: as §1

[3] = CYPES: yellow nutsedge (Cyperus esculentus), read-out: Visual Growth Reduction (%) 14 Days After Application, CYPES
[4] = DIGSA: crabgrass (Digitaria sanguinalis), read-out: Visual Growth Reduction (%) 14 Days After Application, DIGSA
[5] = ECHCG: barnyardgrass (Echinochloa crus-galli), read-out: Visual Growth Reduction (%) 14 Days After Application, ECHCG
[6] = ORYSA: rice (Oryza sativa), crop, read-out: Visual Growth Reduction (%) 14 Days After Application, ORYSA
[7] = SETFA: giant foxtail (Setaria faberi), read-out: Visual Growth Reduction (%) 14 Days After Application, SETFA
[8] = SORVU: grain sorghum (Sorghum vulgare), read-out: Visual Growth Reduction (%) 14 Days After Application, SORVU
[9] = TRZSS (wheat, Triticum aestivum), crop, read-out: Visual Growth Reduction (%) 14 Days After Application, TRZSS
[10] = ZEAMX: maize, corn (Zea mays), crop, read-out: Visual Growth Reduction (%) 14 Days After Application, ZEAMX
[11] = ABUTH: velvetleaf (Abutilon theophrasti), read-out: Visual Growth Reduction (%) 14 Days After Application, ABUTH
[12] = AMARE: redroot pigweed (Amaranthus retroflexus), read-out: Visual Growth Reduction (%) 14 Days After Application, AMARE
[13] = BRSNN: oilseed-rape, canola (Brassica napus), read-out: Visual Growth Reduction (%) 14 Days After Application, BRSNN
[14] = CHEAL: lambsquarters (Chenopodium album), read-out: Visual Growth Reduction (%) 14 Days After Application, CHEAL
[15] = EPHHL: wild poinsettia (Euphorbia heterophylla), read-out: Visual Growth Reduction (%) 14 Days After Application, EPHHL
[16] = HELAN: sunflower (Helianthus annuus), read-out: Visual Growth Reduction (%) 14 Days After Application, HELAN
[17] = VIOTR: wild pansy (Viola tricolor), read-out: Visual Growth Reduction (%) 14 Days After Application, VIOTR

`Nc1c(F)c(-c2ccc(Br)cc2)nc(C(=O)O)c1Cl` [Compound 20] gave a pest or weed control at 70 g/ha [1, 3] of 95 to 100%, a pest or weed control at 140 g/ha [1, 3] of 95 to 100% and a pest or weed control at 70 g/ha [1, 4] of 95 to 100%. The pest or weed control at 140 g/ha [1, 4] was 95 to 100%, the pest or weed control at 70 g/ha [1, 5] was 95 to 100% and the pest or weed control at 140 g/ha [1, 5] was 95 to 100%. For the same compound, the pest or weed control at 70 g/ha [1, 6] was 60 to 74%, the pest or weed control at 140 g/ha [1, 6] was 60 to 74% and the pest or weed control at 70 g/ha [1, 7] was 95 to 100%. It also gave a pest or weed control at 140 g/ha [1, 7] of 95 to 100%, a pest or weed control at 70 g/ha [1, 8] of 95 to 100% and a pest or weed control at 140 g/ha [1, 8] of 95 to 100%. It also gave a pest or weed control at 70 g/ha [1, 9] of 75 to 84%, a pest or weed control at 140 g/ha [1, 9] of 75 to 84% and a pest or weed control at 70 g/ha [1, 10] of 95 to 100%. The pest or weed control at 140 g/ha [1, 10] was 95 to 100%, the pest or weed control at 70 g/ha [2, 11] was 95 to 100% and the pest or weed control at 140 g/ha [2, 11] was 95 to 100%. The pest or weed control at 70 g/ha [2, 12] was 95 to 100%, the pest or weed control at 140 g/ha [2, 12] was 95 to 100% and the pest or weed control at 70 g/ha [2, 13] was 95 to 100%. It also gave a pest or weed control at 140 g/ha [2, 13] of 95 to 100%, a pest or weed control at 70 g/ha [2, 14] of 95 to 100% and a pest or weed control at 140 g/ha [2, 14] of 95 to 100%. For the same compound, the pest or weed control at 70 g/ha [2, 15] was 95 to 100%, the pest or weed control at 140 g/ha [2, 15] was 95 to 100% and the pest or weed control at 70 g/ha [2, 16] was 95 to 100%. It also gave a pest or weed control at 140 g/ha [2, 16] of 95 to 100%, a pest or weed control at 70 g/ha [2, 17] of 95 to 100% and a pest or weed control at 140 g/ha [2, 17] of 95 to 100%.
